Experimental findings from patent US9133115B2 (ACHILLION PHARMACEUTICALS, INC., priority 2008, dated 2015) are described below.

In the test the test system is HCV replicon. In words: HCV replicon replication assay (NPT ELISA) in Huh-7 replicon-containing cells. The following applies: Hepatitis C virus, 72 h; HCV replicon in Huh-7 cells, three days incubation; read-out: EC50. In kind it is cell-based. Summed up:
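Huh-7 cells carrying a bicistronic HCV replicon (HCV-IRES-neo, EMCV-IRES-driven NS3–NS5B, 3′-NTR) were seeded at 6000-7500 cells/well, grown 24 h to 60-70% confluence, then treated with graded compound concentrations. Replication was read as NPT level by capture ELISA (rabbit anti-NPTII, Eu-N1 secondary); interferon alpha served as positive control.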
In general terms: A replicon is a self-replicating genome or part of one, used to study replication in cells.
As usually defined, the EC50 is the concentration giving half of the maximal effect. For the compound `C=C[C@@H]1C[C@]1(NC(=O)[C@@H]1C[C@@H](Oc2cc(-c3ccccc3)nc3cc(OC)ccc23)CN1C(=O)[C@@H](CC(=O)N1CCCCC1)C(C)(C)C)C(=O)NS(=O)(=O)c1cccs1` [Compound 72, (2S,4R)-1-((S)-2-tert-butyl-4-oxo-4-(piperidin-1-yl)butanoyl)-4-(7-methoxy-2-phenylquinolin-4-yloxy)-N-((1R,2S)-1-(thiophen-2-ylsulfonylcarbamoyl)-2-vinylcyclopropyl)pyr-rolidine-2-carboxamide], the EC50 is less than 1000 nM. Turning to `C=C[C@@H]1C[C@]1(NC(=O)[C@@H]1C[C@@H](NC(=O)c2cc(-c3ccccc3)nc3ccccc23)CN1C(=O)[C@@H](CC(=O)N1CCC(F)(F)C1)C(C)(C)C)C(=O)NS(=O)(=O)C1CC1` [Compound 201, N-((3R,5S)-1-((S)-2-tert-butyl-4-(3,3-difluoropyrrolidin-1-yl)-4-oxobutanoyl)-5-((1R,2S)-1-(cyclopropylsulfonyl-carbamoyl)-2-vinylcyclopropyl-carbamoyl)pyrrolidin-3-yl)-2-phenylquinoline-4-carboxamide], the half-maximal effective concentration (EC50) was less than 1000 nM. Turning to `C=CC1CC1(NC(=O)[C@@H]1C[C@@H](Oc2cc(-c3ccccc3)nc3cc(OC)ccc23)CN1C(=O)[C@@H](CC(=O)N1CCCC(C)C1)C(C)(C)C)C(=O)NS(=O)(=O)C1CC1` (stereo partly drawn) [Compound 44, (2S,4R)-1-((2S)-2-tert-butyl-4-(3-methylpiperidin-1-yl)-4-oxobutanoyl)-N-(1-(cyclopropyl-sulfonyl-carbamoyl)-2-vinylcyclopropyl)-4-(7-methoxy-2-phenylquinolin-4-yloxy)pyrrolidine-2-carboxamide], the EC50 was 1000 to 10000 nM. With `C=C[C@@H]1C[C@]1(NC(=O)[C@@H]1C[C@@H](OC(=O)Nc2cccc(Oc3ccccc3)c2)CN1C(=O)[C@@H](CC(=O)N1CCCCC1)C(C)(C)C)C(=O)NS(=O)(=O)C1CC1` [Compound 95, (3R,5S)-1-((S)-2-tert-butyl-4-oxo-4-(piperidin-1-yl)butanoyl)-5-((1R,2S)-1-(cyclopropylsulfonyl-carbamoyl)-2-vinylcyclopropyl-carbamoyl)pyrrolidin-3-yl 3-phenoxyphenyl-carbamate], the EC50 fell in the range of 1000 to 10000 nM.

Take `COc1ccc2c(O[C@@H]3C[C@@H](C(=O)NC4(C(=O)NS(=O)(=O)C5CC5)CCC4)N(C(=O)[C@@H](CC(=O)N4CCCCC4)C(C)(C)C)C3)cc(-c3ccccc3)nc2c1` [Compound 97, (2S,4R)-1-((S)-2-tert-butyl-4-oxo-4-(piperidin-1-yl)butanoyl)-N-(1-(cyclopropylsulfonyl-carbamoyl)cyclo-butyl)-4-(7-methoxy-2-phenylquinolin-4-yloxy)pyrrolidine-2-carboxamide]: the EC50 fell in the range of 1000 to 10000 nM. As to `C=C[C@@H]1C[C@]1(NC(=O)[C@@H]1C[C@@H](Oc2cc(-c3ccccc3)nc3cc(OC)ccc23)CN1C(=O)[C@@H](CC(=O)N1CCCCC1)C(C)(C)C)C(=O)NS(=O)(=O)c1ccc(C)cc1` [Compound 69, (2S,4R)-1-((S)-2-tert-butyl-4-oxo-4-(piperidin-1-yl)butanoyl)-4-(7-methoxy-2-phenylquinolin-4-yloxy)-N-((1R,2S)-1-(p-tolylsulfonyl-carbamoyl)-2-vinyl-cyclopropyl)pyr-rolidine-2-carboxamide], the EC50 was less than 1000 nM. As for `C=C[C@@H]1C[C@]1(NC(=O)[C@@H]1C[C@@H](Oc2cc(-c3ccccc3)nc3cc(OC)ccc23)CN1C(=O)[C@@H](CC(=O)N1CCC(N(C2CC2)S(=O)(=O)c2cccc(C(F)(F)F)c2)CC1)C(C)(C)C)C(=O)NS(=O)(=O)C1CC1` [Compound 175, (2S,4R)-1-((S)-2-tert-butyl-4-(4-(N-cyclopropyl-3-(tri-fluoromethyl)phenyl-sulfonamido)piper-idin-1-yl)-4-oxobutanoyl)-N-((1R,2S)-1-(cyclopropyl-sulfonylcarbamoyl)-2-vinylcyclopropyl)-4-(7-methoxy-2-phenylquinolin-4-yloxy)pyrrolidine-2-carboxamide], the EC50 was less than 1000 nM. For `C=C[C@@H]1C[C@]1(NC(=O)[C@@H]1C[C@@H](Oc2nc(-c3ccccn3)cc3c(Cl)c(OC)ccc23)CN1C(=O)[C@@H](CC(=O)N1CCCC(F)(F)C1)C(C)(C)C)C(=O)NS(=O)(=O)C1CC1` [Compound 244, (2S,4R)-1-((S)-2-tert-butyl-4-(3,3-difluoropiperidin-1-yl)-4-oxobutanoyl)-4-(5-chloro-6-methoxy-3-(pyridin-2-yl)isoquinolin-1-yloxy)-N-((2S)-1-(cyclopropyl-sulfonylcarbamoyl)-2-vinylcyclo-propyl)pyrrolidine-2-carboxamide], the EC50 is less than 1000 nM.

Consider `C=C[C@@H]1C[C@]1(NC(=O)[C@@H]1C[C@@H](NC(=O)c2cc(-c3ccccc3)nc3ccccc23)CN1C(=O)[C@@H](CC(=O)N1CCC(F)(F)CC1)C(C)(C)C)C(=O)NS(=O)(=O)C1CC1` [Compound 200, N-((3R,5S)-1-((S)-2-tert-butyl-4-(4,4-difluoropiperidin-1-yl)-4-oxobutanoyl)-5-((1R,2S)-1-(cyclopropylsulfonyl-carbamoyl)-2-vinylcyclopropyl-carbamoyl)pyrrolidin-3-yl)-2-phenylquinoline-4-carboxamide], for which the EC50 is less than 1000 nM. As for `C=C[C@@H]1C[C@]1(NC(=O)[C@@H]1C[C@@H](Oc2cc(-c3ccccc3)nc3cc(OC)ccc23)CN1C(=O)[C@@H](CC(=O)N1CCCCC1)C(C)(C)C)C(=O)NS(=O)(=O)C1CCCCC1` [Compound 92, (2S,4R)-1-((S)-2-tert-butyl-4-oxo-4-(piperidin-1-yl)butanoyl)-N-((1R,2S)-1-(cyclo-hexylsulfonyl-carbamoyl)-2-vinyl-cyclopropyl)-4-(7-methoxy-2-phenylquinolin-4-yloxy)pyrrolidine-2-carboxamide], the EC50 is less than 1000 nM.

For the compound `C=CC1CC1(NC(=O)[C@@H]1C[C@@H](Oc2cc(-c3ccccc3)nc3cc(OC)ccc23)CN1C(=O)[C@@H](CC(=O)N1CCCc2ccccc21)C(C)(C)C)C(=O)NS(=O)(=O)C1CC1` (stereo partly drawn) [Compound 41, (2S,4R)-1-((S)-2-tert-butyl-4-(3,4-dihydroquinolin-1(2H)-yl)-4-oxobutanoyl)-N-(1-(cyclopropyl-sulfonyl-carbamoyl)-2-vinylcyclopropyl)-4-(7-methoxy-2-phenylquinolin-4-yloxy)pyrrolidine-2-carboxamide], the concentration for a half-maximal effect (EC50) was less than 1000 nM. On to `C=C[C@@H]1C[C@]1(NC(=O)[C@@H]1C[C@@H](OC(=O)N2c3ccccc3Sc3ccccc32)CN1C(=O)[C@@H](CC(=O)N1CCCCC1)C(C)(C)C)C(=O)NS(=O)(=O)C1CC1` [Compound 123, (3R,5S)-1-((S)-2-tert-butyl-4-oxo-4-(piperidin-1-yl)butanoyl)-5-((1R,2S)-1-(cyclopropylsulfonyl-carbamoyl)-2-vinyl-cyclopropylcarbamo-yl)pyrrolidin-3-yl 10H-phenothiazine-10-carboxylate], for which the EC50 was in the range of 1000 to 10000 nM. As to `C=C[C@@H]1C[C@]1(NC(=O)[C@@H]1C[C@@H](Oc2cc(-c3ccccc3)nc3cc(OC)ccc23)CN1C(=O)[C@@H](CC(=O)N1CCCCC1)C(C)(C)C)C(=O)NS(=O)(=O)C1CCCC1` [Compound 105, (2S,4R)-1-((S)-2-tert-butyl-4-oxo-4-(piperidin-1-yl)butanoyl)-N-((1R,2S)-1-(cyclopentyl-sulfonylcarbamoyl)-2-vinylcyclopropyl)-4-(7-methoxy-2-phenylquinolin-4-yloxy)pyrrolidine-2-carboxamide], the EC50 was less than 1000 nM.
